Assay results from patent US20170086736A1, “METHODS AND SYSTEMS USING NON-LABELED ANTIMETABOLITES AND ANALOGS THEREOF AS THERANOSTIC AGENTS” (The Johns Hopkins University, priority 2014, published 2017).

Key:
[1] = CEST MRI of drugs in PBS solution (in vitro phantom); type: physicochemical; settings: for offset of CEST contrast corresponding to NH2 / offset of CEST contrast corresponding to OH: PBS solution, 20 mM, pH 7.4, 37° C., B1=3.6 μT, 3 s
Excerpt: This would of course correspond only to an mM or μM change for the drug and would not be detectable on the large MRI signal of 55 M water molecules (110 M protons). However, for every saturated proton leaving from the solute to water, an intact proton relocates from water to the solute, a process so-called chemical or proton exchange, and subsequently gets saturated again, which will be transferred to the water again in the next exchange. If the exchange rate is fast enough, this continuous process can lead to great signal amplification of the NMR signal carried by the agent, even up to thousands of times (depending on the exchange rate). This can then cause a several percentage decrease in the water signal, allowing imaging of the low-concentration agent with the sensitivity of the water signal. The percentage of water signal decrease, or CEST contrast, is traditionally described by magnetization transfer ratio asymmetry (MTRasym) defined by MTRasym=(S^−Δω−S^+Δω)/S0, where […] are the MRI signal with RF irradiation at particular offsets +Δω and −Δω respectively, and So is that acquired without RF saturation (element (d) of FIG. 1). Because having detectable exchangeable protons (at an appropriate rate at an adequate concentration) is a requirement for generating CEST MRI signal, it thus opens the possibility to detect natural biocompatible molecules by their CEST signal, potentially improving the clinical translatability.
Elements (a)-(d) of FIG. 1 show an illustration of CEST contrast (taken from reference [^1] with permission). […] However, this process is repeated continuously, leading to effect amplification of magnitude depending on the exchange rate (ksw). The CEST contrast can be quantified by a NMR spectrum element (b), a z spectrum in element (c) of frequency dependence of normalized saturated water signal Ssat/S0, with S0 the non-saturated signal) or, an MTRasym plot in element (d). Elements (e)-(f) show CEST detection of drugs through their carried exchangeable protons on NH2 (blue) and OH (red) as exemplified by araC (left) and Gem (right) in PBS solution (20 mM, pH 7.4) at 37° C. using a standard CEST MRI method (RF pulse field strength (B1)=3.6 μT and duration =3 s). […] Elements (f)-(g) of FIG. 1 show the CEST contrast of them as quantified by z-spectra and MTRasym plots respectively, showing strong CEST contrast at ˜1 and ˜2 ppm corresponding to OH and NH2 respectively, which appear partially overlapped at pH 7.4 but can be resolved at low saturation power.
Other drugs, including prodrugs and drug modulators, as well as the drug carriers, are intended to be included within the general scope of this invention. Many of them have exchangeable protons such as OH, NH and NH2 (FIG. 1). Thus, in one embodiment, the water exchangeable proton corresponds to at least one of an OH, NH2 or NH group. The water-exchangeable proton can include at least one of an OH, NH2 or NH group. Other antitumor categories and the biochemical drug modulators (a non-toxic agent that can enhance the effect of drugs when used together, but has no effect when used alone) as listed in Table 1 are also intended to be within the scope of the current invention.

[2] = patients, repetitive infusions, single dose 3 g/m^2 over three hours, up to eight doses; cited from earlier work
[3] = in vivo; cited from earlier work
[4] = single dose of 800 mg/kg (i.p.); cited from earlier work

| SMILES | offset of CEST contrast corresponding to NH2 [1] | offset of CEST contrast corresponding to OH [1] | cerebellar toxicity [2] | offset at which the maximum CEST signal could be detected ([1]; at low pH) | maximum tolerated dose (MTD) [3] | accumulation of gemcitabine in tumor [4] |
| --- | --- | --- | --- | --- | --- | --- |
| Nc1ccn([C@@H]2O[C@H](CO)[C@@H](O)[C@@H]2O)c(=O)n1 [araC, Cytarabine] | ~2 ppm | ~1 ppm | no noticeable cerebellar toxicity |  |  |  |
| Nc1ccn([C@@H]2O[C@H](CO)[C@@H](O)C2(F)F)c(=O)n1 [gemcitabine, Gemcitabine] | ~2 ppm | ~1 ppm |  | 3.2 ppm | 2200 m^g/m2 | up to several mM |
